The conditions of data set [1]: cited from earlier work.
For data set [2], the system named is Powdery Mildew (PM), Uncinula Necator. In words: First year grape vine spray test (Thompson Seedless grapes). The class given is in vivo. To be noted: summary of first year test. From the text: The objective of this study was to test the affect of capsicum on Powdery Mildew (PM), Uncinula Necator and Downey Mildew (DM), Plasmopara Viticola and its destruction of the grape vine, leaves, flag shoots, shoots and bunches. Grape varieties are susceptible to powdery mildew and Downey mildew, Thompson's Seedless grapes was used as a test subject.
Treatment began in the beginning of the season onto fruiting bodies (Cleistothecia) and the early stage of bud growth (3 to 5 inches). Later treatment was applied again, after about 3 weeks when there was new bud growth. When the fruits were about the size of small peas, treatment is once again applied to the bunches. Treatment was also planned to be administered if symptoms of fungal infections arose.
• Kalsec brand water soluble; Code #01-050-02-01 • MasterTaste brand oil soluble; Code 500087, Lot #059618
The grape vineyard to be treated is located at 19521 American Ave., Kerman Calif.,—Thompson Seedless grapes—NW corner. (Block 5B). Vines were sprayed with standard spray equipment (bottles). The spray was applied at approximately one foot away from the plants and vines. The spray was applied at an application rate of about ½ the usual spray application from a standard tractor rig. The budding fruit was sprayed along with the leaves and new budding growth. The spray was administered from the sides only. […]

Data on one compound can be found in patent US20100159042A1, “CAPSICUM BASED MILDEW KILLING SOLUTION AND METHOD OF USE” (priority 2008, published 2010).

Take `COc1cc(CNC(=O)CCCC/C=C/C(C)C)ccc1O` [Capsaicin, N-vanillyl-8-methyl-6-(E)-noneamide]: the solubility in alcohol result in data set [1] (alcohol) is “soluble”. In addition, the “solubility in cold water” value in data set [1] (cold water) is recorded as “insoluble”. Moreover, the “solubility in fats, oils and alcohol” value in data set [1] (fats, oils and alcohol) is on record as “very soluble”. Further, the solubility in water entry in data set [1] (water) is “sparingly soluble”. Moreover, in data set [2], the “effect on growth of mildew on grape vines” value is reported as “hinders or kills the growth of mildew”.
